Test system in one assay: not listed separately
The experiment in a line: DRUGMATRIX: Glutamate, Kainate radioligand binding (ligand: [3H] Kainic acid). The class given is cell membranes, Rattus norvegicus, Wistar, Brain, Membrane. Particulars: Not Active = under 50% inhibition at 10 µM.
Kappa-type opioid receptor, sequence (P41145 whole entry): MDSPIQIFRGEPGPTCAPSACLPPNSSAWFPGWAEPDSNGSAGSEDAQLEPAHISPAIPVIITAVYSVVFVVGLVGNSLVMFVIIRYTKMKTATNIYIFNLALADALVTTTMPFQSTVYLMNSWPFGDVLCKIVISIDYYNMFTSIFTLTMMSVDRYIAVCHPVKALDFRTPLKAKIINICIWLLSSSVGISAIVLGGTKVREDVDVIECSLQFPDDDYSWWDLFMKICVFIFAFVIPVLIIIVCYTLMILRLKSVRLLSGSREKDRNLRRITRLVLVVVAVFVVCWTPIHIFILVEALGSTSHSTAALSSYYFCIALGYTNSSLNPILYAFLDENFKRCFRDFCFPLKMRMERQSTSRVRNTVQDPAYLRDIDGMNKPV
Regarding `CN[C@@H]1[C@@H](O)[C@@H](O[C@@H]2[C@@H](O)[C@H](O[C@H]3OC(CN)=CC[C@H]3N)[C@@H](N)C[C@H]2N)OC[C@]1(C)O` [SISOMICIN], the IC50 result is given as “Not Active” and the Ki result is reported as “Not Active”.

Test system in another assay: not listed separately
Briefly: DRUGMATRIX: ATPase, Na+/K+ enzyme inhibition (substrate: ATP). The class given is tissue-based, Sus scrofa, Heart. The conditions noted are these: Not Active = under 50% inhibition at 10 µM.
Regarding `CN[C@@H]1[C@@H](O)[C@@H](O[C@@H]2[C@@H](O)[C@H](O[C@H]3OC(CN)=CC[C@H]3N)[C@@H](N)C[C@H]2N)OC[C@]1(C)O` [SISOMICIN], the IC50 result was “Not Active” and the Ki entry was “Not Active”.

Test system in another assay: not listed separately
Briefly: DRUGMATRIX: Nicotinic Acetylcholine radioligand binding (ligand: [125I] Epibatidine). Format: cell membranes, Membrane. The conditions noted are these: imr-32; Not Active = under 50% inhibition at 10 µM.
In the case of `CN[C@@H]1[C@@H](O)[C@@H](O[C@@H]2[C@@H](O)[C@H](O[C@H]3OC(CN)=CC[C@H]3N)[C@@H](N)C[C@H]2N)OC[C@]1(C)O` [SISOMICIN], the IC50 result is listed as “Not Active” and the Ki entry is listed as “Not Active”.

Another assay has as its target Kappa-type opioid receptor (Homo sapiens, UniProt P41145). The experiment in a line: DRUGMATRIX: Opiate kappa (OP2, KOP) radioligand binding (ligand: [3H] Diprenorphine). The class given is cell membranes, HEK293, Membrane. Particulars: hek293; Not Active = under 50% inhibition at 10 µM.
`CN[C@@H]1[C@@H](O)[C@@H](O[C@@H]2[C@@H](O)[C@H](O[C@H]3OC(CN)=CC[C@H]3N)[C@@H](N)C[C@H]2N)OC[C@]1(C)O` [SISOMICIN]: the IC50 result was “Not Active”.

A further assay deals with Melanocortin receptor 4 (Homo sapiens, UniProt P32245). The class given is cell membranes, Membrane. Particulars: hek293.
Melanocortin receptor 4, sequence (P32245 whole entry): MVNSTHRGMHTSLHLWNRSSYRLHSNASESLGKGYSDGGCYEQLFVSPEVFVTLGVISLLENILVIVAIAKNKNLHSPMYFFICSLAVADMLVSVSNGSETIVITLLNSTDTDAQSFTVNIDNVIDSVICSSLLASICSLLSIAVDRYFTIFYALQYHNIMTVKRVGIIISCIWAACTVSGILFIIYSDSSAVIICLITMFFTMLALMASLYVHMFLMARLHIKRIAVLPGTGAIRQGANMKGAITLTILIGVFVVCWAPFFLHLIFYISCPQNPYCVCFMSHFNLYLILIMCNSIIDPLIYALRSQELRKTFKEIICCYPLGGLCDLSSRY
In the case of `CN[C@@H]1[C@@H](O)[C@@H](O[C@@H]2[C@@H](O)[C@H](O[C@H]3OC(CN)=CC[C@H]3N)[C@@H](N)C[C@H]2N)OC[C@]1(C)O` [SISOMICIN], the IC50 entry is “Not Active”.

A further assay concerns the target T1, Alpha-1B adrenergic receptor (Rattus norvegicus, UniProt P15823).
T1 sequence (P15823 whole entry): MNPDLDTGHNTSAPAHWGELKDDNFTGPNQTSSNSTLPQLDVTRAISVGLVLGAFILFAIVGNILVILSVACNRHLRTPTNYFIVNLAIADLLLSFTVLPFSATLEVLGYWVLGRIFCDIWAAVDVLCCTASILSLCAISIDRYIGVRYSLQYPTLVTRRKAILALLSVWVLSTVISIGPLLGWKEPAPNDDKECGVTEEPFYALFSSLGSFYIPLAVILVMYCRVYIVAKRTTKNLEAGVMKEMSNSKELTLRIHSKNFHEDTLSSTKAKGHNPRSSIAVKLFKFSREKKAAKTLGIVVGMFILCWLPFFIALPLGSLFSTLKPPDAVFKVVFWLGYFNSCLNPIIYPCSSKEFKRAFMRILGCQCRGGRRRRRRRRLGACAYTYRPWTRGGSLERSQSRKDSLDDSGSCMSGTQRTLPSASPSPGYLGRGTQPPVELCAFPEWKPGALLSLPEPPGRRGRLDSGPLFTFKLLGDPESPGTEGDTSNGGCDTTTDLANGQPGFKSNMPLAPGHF
The experiment in a line: DRUGMATRIX: Alpha-1B adrenergic receptor radioligand binding (ligand: prazosin). Format: cell membranes, Wistar, Liver, Membrane. Particulars: Not Active = under 50% inhibition at 10 µM.
On to `CN[C@@H]1[C@@H](O)[C@@H](O[C@@H]2[C@@H](O)[C@H](O[C@H]3OC(CN)=CC[C@H]3N)[C@@H](N)C[C@H]2N)OC[C@]1(C)O` [SISOMICIN], for which the IC50 result is on record as “Not Active”.

Test system in another assay: not listed separately
The experiment in a line: DRUGMATRIX: GABAA, Muscimol, Central radioligand binding (ligand: [3H] Muscimol). The class given is cell membranes, Rattus norvegicus, Wistar, Brain, Membrane. The conditions noted are these: Not Active = under 50% inhibition at 10 µM.
As to `CN[C@@H]1[C@@H](O)[C@@H](O[C@@H]2[C@@H](O)[C@H](O[C@H]3OC(CN)=CC[C@H]3N)[C@@H](N)C[C@H]2N)OC[C@]1(C)O` [SISOMICIN], the IC50 result is “Not Active” and the Ki result was “Not Active”.

The target in another assay is Mu-type opioid receptor (Homo sapiens, UniProt P35372). The experiment in a line: DRUGMATRIX: Opiate mu (OP3, MOP) radioligand binding (ligand: [3H] Diprenorphine). Format: cell membranes, CHO-K1, Membrane. The conditions noted are these: cho-k1; Not Active = under 50% inhibition at 10 µM.
Mu-type opioid receptor, sequence (P35372 whole entry): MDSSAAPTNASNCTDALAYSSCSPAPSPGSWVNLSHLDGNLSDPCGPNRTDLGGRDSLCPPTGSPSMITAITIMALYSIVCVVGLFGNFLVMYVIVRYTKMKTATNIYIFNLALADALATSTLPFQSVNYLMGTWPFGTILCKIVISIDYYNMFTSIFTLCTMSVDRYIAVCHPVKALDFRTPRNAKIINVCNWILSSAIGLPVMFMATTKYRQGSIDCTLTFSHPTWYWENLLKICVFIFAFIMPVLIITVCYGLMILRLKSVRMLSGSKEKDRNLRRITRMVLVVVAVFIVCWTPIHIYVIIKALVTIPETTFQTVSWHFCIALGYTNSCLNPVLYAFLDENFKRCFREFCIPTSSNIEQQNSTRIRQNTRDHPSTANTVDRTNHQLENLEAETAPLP
As for `CN[C@@H]1[C@@H](O)[C@@H](O[C@@H]2[C@@H](O)[C@H](O[C@H]3OC(CN)=CC[C@H]3N)[C@@H](N)C[C@H]2N)OC[C@]1(C)O` [SISOMICIN], the IC50 entry was “Not Active”.

A further assay has as its target T2, Neuropeptide Y receptor type 2 (Homo sapiens, UniProt P49146). Also: in other assays of this panel Not Active means under 50% inhibition at 10 µM.
T2 sequence (P49146 whole entry): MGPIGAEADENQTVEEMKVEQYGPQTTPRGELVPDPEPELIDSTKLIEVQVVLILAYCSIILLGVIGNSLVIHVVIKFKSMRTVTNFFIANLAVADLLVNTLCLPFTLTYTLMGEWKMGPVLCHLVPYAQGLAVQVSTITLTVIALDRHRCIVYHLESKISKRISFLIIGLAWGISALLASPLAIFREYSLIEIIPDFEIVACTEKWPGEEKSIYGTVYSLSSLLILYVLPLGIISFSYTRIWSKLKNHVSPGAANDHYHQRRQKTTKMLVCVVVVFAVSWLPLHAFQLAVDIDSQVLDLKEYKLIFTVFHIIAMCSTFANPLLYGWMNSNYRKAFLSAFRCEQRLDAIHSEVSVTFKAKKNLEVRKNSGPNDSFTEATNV
Format: cell membranes, Membrane. The conditions noted are these: kan-ts.
On to `CN[C@@H]1[C@@H](O)[C@@H](O[C@@H]2[C@@H](O)[C@H](O[C@H]3OC(CN)=CC[C@H]3N)[C@@H](N)C[C@H]2N)OC[C@]1(C)O` [SISOMICIN], for which the IC50 entry is “Not Active”.

Test system in a further assay: not listed separately
Briefly: DRUGMATRIX: Serotonin (5-Hydroxytryptamine) 5-HT3 radioligand binding (ligand: [3H] GR-65630). The class given is cell membranes, Membrane. Particulars: hek293; Not Active = under 50% inhibition at 10 µM.
Turning to `CN[C@@H]1[C@@H](O)[C@@H](O[C@@H]2[C@@H](O)[C@H](O[C@H]3OC(CN)=CC[C@H]3N)[C@@H](N)C[C@H]2N)OC[C@]1(C)O` [SISOMICIN], the IC50 entry was “Not Active” and the Ki result was “Not Active”.

The target in another assay is 5-hydroxytryptamine receptor 6 (Homo sapiens, UniProt P50406). Format: cell membranes, HeLa, Membrane. Particulars: hela. Also: in other assays of this panel Not Active means under 50% inhibition at 10 µM.
5-hydroxytryptamine receptor 6, sequence (P50406 whole entry): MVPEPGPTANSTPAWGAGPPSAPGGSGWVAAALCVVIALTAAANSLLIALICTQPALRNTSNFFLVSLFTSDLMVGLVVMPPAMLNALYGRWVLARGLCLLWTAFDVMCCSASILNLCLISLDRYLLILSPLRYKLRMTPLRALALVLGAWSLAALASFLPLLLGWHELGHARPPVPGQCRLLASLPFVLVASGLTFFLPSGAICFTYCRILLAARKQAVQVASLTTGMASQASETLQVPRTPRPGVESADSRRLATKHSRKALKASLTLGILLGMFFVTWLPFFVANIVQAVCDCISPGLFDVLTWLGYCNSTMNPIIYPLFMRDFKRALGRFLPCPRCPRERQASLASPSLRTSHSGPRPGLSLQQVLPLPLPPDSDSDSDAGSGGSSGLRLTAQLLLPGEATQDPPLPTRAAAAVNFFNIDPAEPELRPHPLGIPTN
On to `CN[C@@H]1[C@@H](O)[C@@H](O[C@@H]2[C@@H](O)[C@H](O[C@H]3OC(CN)=CC[C@H]3N)[C@@H](N)C[C@H]2N)OC[C@]1(C)O` [SISOMICIN], for which the IC50 result was “Not Active”.

In a further assay the target is Beta-1 adrenergic receptor (Homo sapiens, UniProt P08588). The experiment in a line: DRUGMATRIX: Adrenergic beta1 radioligand binding (ligand: [125I] Cyanopindolol). The class given is cell membranes, CHO-K1, Membrane. Particulars: cho-k1; Not Active = under 50% inhibition at 10 µM.
Beta-1 adrenergic receptor, sequence (P08588 whole entry): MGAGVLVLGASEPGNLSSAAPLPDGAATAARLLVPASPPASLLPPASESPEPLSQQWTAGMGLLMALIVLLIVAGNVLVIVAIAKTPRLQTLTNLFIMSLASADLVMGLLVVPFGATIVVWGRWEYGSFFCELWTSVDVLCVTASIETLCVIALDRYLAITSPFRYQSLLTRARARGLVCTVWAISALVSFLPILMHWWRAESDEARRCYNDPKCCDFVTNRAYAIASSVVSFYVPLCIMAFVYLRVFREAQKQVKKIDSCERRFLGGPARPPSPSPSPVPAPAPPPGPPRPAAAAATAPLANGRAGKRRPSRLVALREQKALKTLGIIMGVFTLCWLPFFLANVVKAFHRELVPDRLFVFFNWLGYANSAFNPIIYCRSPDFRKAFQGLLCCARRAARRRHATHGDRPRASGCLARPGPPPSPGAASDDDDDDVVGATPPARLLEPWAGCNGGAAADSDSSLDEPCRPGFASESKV
For the compound `CN[C@@H]1[C@@H](O)[C@@H](O[C@@H]2[C@@H](O)[C@H](O[C@H]3OC(CN)=CC[C@H]3N)[C@@H](N)C[C@H]2N)OC[C@]1(C)O` [SISOMICIN], the IC50 entry is on record as “Not Active”.

A further assay concerns the target T3, 5-hydroxytryptamine receptor 2C (Homo sapiens, UniProt P28335).
T3 sequence (P28335 whole entry): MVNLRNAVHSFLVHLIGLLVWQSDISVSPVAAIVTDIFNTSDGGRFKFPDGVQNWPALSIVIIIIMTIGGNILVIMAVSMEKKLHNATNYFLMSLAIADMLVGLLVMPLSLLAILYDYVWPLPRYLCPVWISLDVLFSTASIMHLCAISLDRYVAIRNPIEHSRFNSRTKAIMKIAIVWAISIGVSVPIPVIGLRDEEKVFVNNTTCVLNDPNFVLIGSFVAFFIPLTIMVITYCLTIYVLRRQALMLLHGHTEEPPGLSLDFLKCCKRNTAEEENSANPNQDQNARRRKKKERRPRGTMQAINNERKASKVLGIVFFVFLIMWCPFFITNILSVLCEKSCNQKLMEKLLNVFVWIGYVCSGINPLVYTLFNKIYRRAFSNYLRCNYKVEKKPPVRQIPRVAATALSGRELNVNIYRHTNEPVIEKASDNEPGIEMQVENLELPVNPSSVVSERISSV
Briefly: DRUGMATRIX: Serotonin (5-Hydroxytryptamine) 5-HT2C radioligand binding (ligand: [3H] Mesulergine). The class given is cell membranes, CHO-K1, Membrane. Particulars: cho-k1; Not Active = under 50% inhibition at 10 µM.
For `CN[C@@H]1[C@@H](O)[C@@H](O[C@@H]2[C@@H](O)[C@H](O[C@H]3OC(CN)=CC[C@H]3N)[C@@H](N)C[C@H]2N)OC[C@]1(C)O` [SISOMICIN], the IC50 result is reported as “Not Active”.

Test system in a further assay: not listed separately
Briefly: DRUGMATRIX: Calcium Channel Type L, Benzothiazepine radioligand binding (ligand: [3H] Diltiazem). The class given is cell membranes, Rattus norvegicus, Wistar, Brain, Membrane. The conditions noted are these: Not Active = under 50% inhibition at 10 µM.
As to `CN[C@@H]1[C@@H](O)[C@@H](O[C@@H]2[C@@H](O)[C@H](O[C@H]3OC(CN)=CC[C@H]3N)[C@@H](N)C[C@H]2N)OC[C@]1(C)O` [SISOMICIN], the IC50 result is listed as “Not Active” and the Ki entry is recorded as “Not Active”.

The target in a further assay is Sigma non-opioid intracellular receptor 1 (Homo sapiens, UniProt Q99720). Briefly: DRUGMATRIX: Sigma1 radioligand binding (ligand: [3H] Haloperidol). The conditions noted are these: jurkat; Not Active = under 50% inhibition at 10 µM. The class given is cell membranes, Jurkat, Membrane.
Sigma non-opioid intracellular receptor 1, sequence (Q99720 whole entry): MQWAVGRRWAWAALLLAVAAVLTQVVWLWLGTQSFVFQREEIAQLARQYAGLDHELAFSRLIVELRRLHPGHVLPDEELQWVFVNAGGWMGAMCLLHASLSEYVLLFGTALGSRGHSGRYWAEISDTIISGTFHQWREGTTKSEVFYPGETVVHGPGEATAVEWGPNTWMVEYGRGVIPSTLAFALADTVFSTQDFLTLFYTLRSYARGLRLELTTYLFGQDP
Regarding `CN[C@@H]1[C@@H](O)[C@@H](O[C@@H]2[C@@H](O)[C@H](O[C@H]3OC(CN)=CC[C@H]3N)[C@@H](N)C[C@H]2N)OC[C@]1(C)O` [SISOMICIN], the IC50 entry is listed as “Not Active”.

Test system in a further assay: not listed separately
Briefly: DRUGMATRIX: Calcium Channel Type L, Phenylalkylamine radioligand binding (ligand: [3H] (-)-Desmethoxyverapamil (D-888)). The class given is cell membranes, Rattus norvegicus, Wistar, Brain, Membrane. The conditions noted are these: Not Active = under 50% inhibition at 10 µM.
`CN[C@@H]1[C@@H](O)[C@@H](O[C@@H]2[C@@H](O)[C@H](O[C@H]3OC(CN)=CC[C@H]3N)[C@@H](N)C[C@H]2N)OC[C@]1(C)O` [SISOMICIN]: the IC50 result is listed as “Not Active” and the Ki entry is listed as “Not Active”.

The target of a further assay is T4, Endothelin-1 receptor (Homo sapiens, UniProt P25101). Also: in other assays of this panel Not Active means under 50% inhibition at 10 µM.
T4 sequence (P25101 whole entry): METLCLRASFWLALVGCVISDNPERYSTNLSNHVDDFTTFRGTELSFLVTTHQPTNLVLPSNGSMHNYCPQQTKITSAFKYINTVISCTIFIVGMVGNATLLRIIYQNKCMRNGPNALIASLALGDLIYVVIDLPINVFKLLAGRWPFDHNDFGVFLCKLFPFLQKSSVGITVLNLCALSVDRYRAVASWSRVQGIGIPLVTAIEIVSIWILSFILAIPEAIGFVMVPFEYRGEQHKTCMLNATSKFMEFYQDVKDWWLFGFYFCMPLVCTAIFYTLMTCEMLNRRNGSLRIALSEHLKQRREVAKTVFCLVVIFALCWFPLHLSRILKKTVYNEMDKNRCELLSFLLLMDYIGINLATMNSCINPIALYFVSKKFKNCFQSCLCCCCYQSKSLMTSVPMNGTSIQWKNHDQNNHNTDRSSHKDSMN
Format: cell membranes, Membrane. Particulars: cho-k1.
On to `CN[C@@H]1[C@@H](O)[C@@H](O[C@@H]2[C@@H](O)[C@H](O[C@H]3OC(CN)=CC[C@H]3N)[C@@H](N)C[C@H]2N)OC[C@]1(C)O` [SISOMICIN], for which the IC50 result is “Not Active”.

Values taken from ChEMBL document CHEMBL1909046, “DrugMatrix in vitro pharmacology data”.
